# Laboratory results: PubChem BioAssay AID2060511 (Molecular Pharmacology Branch, DTP, NCI, 2025)
# pIC50: −log10 of the molar value.
# System: 422866-222-R5-J1-PDC spheroids with HUVEC/MSC, viability
# Experiment: Anticancer human tumor 422866-222-R5-J1-PDC patient-derived pancreatic adenocarcinoma cell line growth inhibition [GQUAD]
# Details: for pIC50: curve of first compound; for viability, T/C: stronger effect = lower value
# Procedure, shortened: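 Tumor cells were grown as complex spheroids with HUVEC endothelial cells and mesenchymal stem cells as stroma. G-quadruplex stabilizers were combined with targeted agents over half-log dilutions from near the clinical Cmax, or from 10 microM.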
# [1] = second compound 0.0316 µM, first compound 0.0316 µM
# [2] = second compound 0.0316 µM, first compound 0.1 µM
# [3] = second compound 0.0316 µM, first compound 0.316 µM
# [4] = second compound 0.0316 µM, first compound 1 µM
# [5] = second compound 0.0316 µM, first compound 3.16 µM
# [6] = second compound 0.0316 µM, first compound 10 µM
# [7] = second compound 0.1 µM, first compound 0.0316 µM
# [8] = second compound 0.1 µM, first compound 0.1 µM
# [9] = second compound 0.1 µM, first compound 0.316 µM
# [10] = second compound 0.1 µM, first compound 1 µM
# [11] = second compound 0.1 µM, first compound 3.16 µM
# [12] = second compound 0.1 µM, first compound 10 µM
# [13] = second compound 0.316 µM, first compound 0.0316 µM
# [14] = second compound 0.316 µM, first compound 0.1 µM
# [15] = second compound 0.316 µM, first compound 0.316 µM
# [16] = second compound 0.316 µM, first compound 1 µM
# [17] = second compound 0.316 µM, first compound 3.16 µM
# [18] = second compound 0.316 µM, first compound 10 µM
# [19] = second compound 1 µM, first compound 0.0316 µM
# [20] = second compound 1 µM, first compound 0.1 µM
# [21] = second compound 1 µM, first compound 0.316 µM
# [22] = second compound 1 µM, first compound 1 µM
# [23] = second compound 1 µM, first compound 3.16 µM
# [24] = second compound 1 µM, first compound 10 µM
# [25] = second compound 3.16 µM, first compound 0.0316 µM
# [26] = second compound 3.16 µM, first compound 0.1 µM
# [27] = second compound 3.16 µM, first compound 0.316 µM
# [28] = second compound 3.16 µM, first compound 1 µM
# [29] = second compound 3.16 µM, first compound 3.16 µM
# [30] = second compound 3.16 µM, first compound 10 µM
# [31] = second compound 10 µM, first compound 0.0316 µM
# [32] = second compound 10 µM, first compound 0.1 µM
# [33] = second compound 10 µM, first compound 0.316 µM
# [34] = second compound 10 µM, first compound 1 µM
# [35] = second compound 10 µM, first compound 3.16 µM
# [36] = second compound 10 µM, first compound 10 µM
# 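Further: spheroids exposed to compounds for seven days before reading.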
# 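Wherever viability, T/C is given: percent viability relative to DMSO vehicle control taken as 100%.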
smiles,measurement,setting,value
CC(C)n1c(=O)n(C)c2cnc3cc(F)c(-c4ccc(OCCCN5CCCCC5)nc4)cc3c21 + Cc1cnc(CNC(=O)c2c(=O)c3ccc(N4CCCN(C)CC4)nc3n3c2sc2ccccc23)cn1,pIC50,second compound 0.0316 µM,< 5.00
same,pIC50,second compound 0.1 µM,< 5.00
same,pIC50,second compound 0.316 µM,< 5.00
same,pIC50,second compound 1 µM,< 5.00
same,pIC50,second compound 3.16 µM,< 5.00
same,pIC50,second compound 10 µM,< 5.00
same,"viability, T/C",[1],81.6%
same,"viability, T/C",[2],74.2%
same,"viability, T/C",[3],75%
same,"viability, T/C",[4],74%
same,"viability, T/C",[5],76.7%
same,"viability, T/C",[6],58.5%
same,"viability, T/C",[7],84.9%
same,"viability, T/C",[8],85.2%
same,"viability, T/C",[9],75%
same,"viability, T/C",[10],75.6%
same,"viability, T/C",[11],90.8%
same,"viability, T/C",[12],50.9%
same,"viability, T/C",[13],86.2%
same,"viability, T/C",[14],93%
same,"viability, T/C",[15],96%
same,"viability, T/C",[16],80.6%
same,"viability, T/C",[17],90.8%
same,"viability, T/C",[18],69.1%
same,"viability, T/C",[19],87.5%
same,"viability, T/C",[20],85.8%
same,"viability, T/C",[21],87.3%
same,"viability, T/C",[22],96%
same,"viability, T/C",[23],96.7%
same,"viability, T/C",[24],71%
same,"viability, T/C",[25],74.5%
same,"viability, T/C",[26],90.5%
same,"viability, T/C",[27],81.1%
same,"viability, T/C",[28],94.2%
same,"viability, T/C",[29],92.6%
same,"viability, T/C",[30],77.4%
same,"viability, T/C",[31],70.9%
same,"viability, T/C",[32],76.5%
same,"viability, T/C",[33],82.2%
same,"viability, T/C",[34],82.3%
same,"viability, T/C",[35],85.5%
same,"viability, T/C",[36],62.5%
CC1COCCN1c1cc(C2(O)CC3CCC(C2)O3)c2cnn(-c3ccn[nH]3)c2n1 (stereo unspecified) + Cc1cnc(CNC(=O)c2c(=O)c3ccc(N4CCCN(C)CC4)nc3n3c2sc2ccccc23)cn1,pIC50,second compound 0.0316 µM,< 5.00
same,pIC50,second compound 0.1 µM,7.50
same,pIC50,second compound 0.316 µM,< 5.00
same,pIC50,second compound 1 µM,< 5.00
same,pIC50,second compound 3.16 µM,7.50
same,pIC50,second compound 10 µM,7.50
same,"viability, T/C",[1],64.2%
same,"viability, T/C",[2],43.7%
same,"viability, T/C",[3],43.1%
same,"viability, T/C",[4],61.8%
same,"viability, T/C",[5],80.2%
same,"viability, T/C",[6],82.9%
same,"viability, T/C",[7],67.7%
same,"viability, T/C",[8],51%
same,"viability, T/C",[9],35.3%
same,"viability, T/C",[10],49.2%
same,"viability, T/C",[11],86.7%
same,"viability, T/C",[12],90.4%
same,"viability, T/C",[13],74.2%
same,"viability, T/C",[14],61.2%
same,"viability, T/C",[15],47.8%
same,"viability, T/C",[16],47.4%
same,"viability, T/C",[17],85.5%
same,"viability, T/C",[18],81.9%
same,"viability, T/C",[19],70.1%
same,"viability, T/C",[20],63.9%
same,"viability, T/C",[21],44.1%
same,"viability, T/C",[22],53.6%
same,"viability, T/C",[23],74.9%
same,"viability, T/C",[24],85.4%
same,"viability, T/C",[25],59.7%
same,"viability, T/C",[26],63.5%
same,"viability, T/C",[27],42.2%
same,"viability, T/C",[28],46.2%
same,"viability, T/C",[29],75.2%
same,"viability, T/C",[30],76%
same,"viability, T/C",[31],61.4%
same,"viability, T/C",[32],62.4%
same,"viability, T/C",[33],45.2%
same,"viability, T/C",[34],36.8%
same,"viability, T/C",[35],68.6%
same,"viability, T/C",[36],78.5%
CC1COCCN1c1cc(C2(S(C)(=N)=O)CC2)nc(-c2ccnc3[nH]ccc23)n1 (stereo unspecified) + Cc1cnc(CNC(=O)c2c(=O)c3ccc(N4CCCN(C)CC4)nc3n3c2sc2ccccc23)cn1,pIC50,second compound 0.0316 µM,< 5.00
same,pIC50,second compound 0.1 µM,< 5.00
same,pIC50,second compound 0.316 µM,< 5.00
same,pIC50,second compound 1 µM,< 5.00
same,pIC50,second compound 3.16 µM,< 5.00
same,pIC50,second compound 10 µM,< 5.00
same,"viability, T/C",[1],102%
same,"viability, T/C",[2],103%
same,"viability, T/C",[3],95.1%
same,"viability, T/C",[4],80.8%
same,"viability, T/C",[5],71%
same,"viability, T/C",[6],50.7%
same,"viability, T/C",[7],104%
same,"viability, T/C",[8],102%
same,"viability, T/C",[9],96.2%
same,"viability, T/C",[10],80%
same,"viability, T/C",[11],67.7%
same,"viability, T/C",[12],53.6%
same,"viability, T/C",[13],91.7%
same,"viability, T/C",[14],98.5%
same,"viability, T/C",[15],99.5%
same,"viability, T/C",[16],96.2%
same,"viability, T/C",[17],77.4%
same,"viability, T/C",[18],61.2%
same,"viability, T/C",[19],83.2%
same,"viability, T/C",[20],92.8%
same,"viability, T/C",[21],103%
same,"viability, T/C",[22],86.3%
same,"viability, T/C",[23],72.8%
same,"viability, T/C",[24],77.6%
same,"viability, T/C",[25],93.9%
same,"viability, T/C",[26],96.6%
same,"viability, T/C",[27],90.2%
same,"viability, T/C",[28],94.7%
same,"viability, T/C",[29],78.1%
same,"viability, T/C",[30],71.6%
same,"viability, T/C",[31],89.7%
same,"viability, T/C",[32],92.3%
same,"viability, T/C",[33],93.1%
same,"viability, T/C",[34],87.7%
same,"viability, T/C",[35],82%
same,"viability, T/C",[36],64.7%
